One assay deals with T1, 5-HT2A receptor (Rattus norvegicus, UniProt P14842).
T1 construct: Cerebral cortex was homogenized in 10 volumes of ice cold 0.32 M sucrose; from tissue; host or cells: rat cerebral cortex (male Sprague-Dawley)
The assay is described as follows: 5-HT2A receptor binding, [3H]-Ketanserine displacement. The note with it: rat cortex tissue, read-out: K1 (nM) for 5-HT2A (Rat cortex tissue). Here is the method: Male Sprague-Dawley rats (200-250 g) were used. Cerebral cortex was homogenized in 10 volumes of ice cold 0.32 M sucrose. After the centrifugation of the homogenate (1,000×g for 10 minutes) the supernatant was then recentrifuged at 48,000×g for 15 minutes. The resulting pellet was suspended in 10 volumes of 50 mM TRIS buffer (pH 7.4), incubated at 37° C. for 10 minutes and recentrifuged at 48,000 × g for 15 minutes. The residue was then resuspended in 10 volumes of 50 mM TRIS buffer (pH 7.4).
The tissue was diluted 1:100 (w:v) in 50 mM TRIS buffer (pH 7.4) to have a final concentration of about 200 μg/ml. Displacement experiments were performed by incubating the homogenate (980 μl) in the presence of [^3 H]-Ketanserine (10 μl; 0.5-0.6 nM) and different concentrations of the test compounds dissolved in DMSO (10 μl) at 37° C. for 10 minutes (final volume: 1 ml). Nonspecific binding was determined in the presence of 100 μM Methysergide (10 μl). The reaction was stopped by rapid filtration through Inotech IH 201 filters using an Inotech Cell Harvester. The radioactivity was counted by liquid scintillation spectrometry.
(§1) The affinity values (Ki) for the compounds were obtained by a nonlinear least squares regression analysis on the basis of a one binding site model. The values were corrected on the basis of the radioligand occupancy on the receptors according to the equation: Ki =IC50 /(1+[C]/Kd), where [C] and Kd represent the concentration and the dissociation constant of the used radioligands ([^3 H]-8-OH-DPAT for the 5-HT1A binding, [^3 H]-Ketanserine for the 5-HT2A binding and [^3 H]-YM 09151-2) for the D4 binding, respectively).

The next assay addresses T2, D4 receptor (Homo sapiens, UniProt P21917).
T2 construct: expressed in transfected cells; host or cells: CHO cells
T2 sequence (P21917 1-419): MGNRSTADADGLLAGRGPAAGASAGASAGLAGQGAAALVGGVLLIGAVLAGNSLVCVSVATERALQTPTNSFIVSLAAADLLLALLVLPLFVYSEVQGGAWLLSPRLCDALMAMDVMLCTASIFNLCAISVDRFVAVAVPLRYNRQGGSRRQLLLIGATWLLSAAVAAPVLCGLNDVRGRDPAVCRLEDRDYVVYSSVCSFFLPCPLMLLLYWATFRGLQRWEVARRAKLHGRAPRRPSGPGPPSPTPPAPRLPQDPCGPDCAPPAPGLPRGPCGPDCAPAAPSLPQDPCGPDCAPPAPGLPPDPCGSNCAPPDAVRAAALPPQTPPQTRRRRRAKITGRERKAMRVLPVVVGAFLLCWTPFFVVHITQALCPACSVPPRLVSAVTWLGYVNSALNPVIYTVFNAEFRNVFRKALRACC
Briefly: D4 receptor binding, [3H]-YM 09151-2 displacement. The note with it: CHO cell membranes, read-out: K1 (nM) for D4 (CHO cell membranes). As to the method:
Cells were grown in monolayer at 37° C. in 95% air/5% CO2 in Dulbecco's Modified Eagle Medium (DMEM) supplemented with 7.5% (v/v) heat-inactivated fetal bovine serum (FBS), 2.5% (v/v) heat-inactivated horse serum donor herd, 2% of a stock solution containing 5000 I.U./ml penicillin and 5000 μg/ml streptomycin, 1% (v/v) of a solution MEM containing non-essential amino acid, 2 mM glutamine ind 200 μg/ml geneticin. Cells were passaged twice a week using a trypsin/EDTA solution and the split rate was 1:4. Cells were not subcultured more than 17 times.
Preparation of cell membranes:
The cells grown to confluence were washed twice with Dulbecco's PBS buffer and were detached adding VERSENE (PBS containing 0.2 g/l EDTA) for 10 minutes at 37° C. The cell suspension was centrifuged at 1,000 rpm for 10 minutes and the pellet was harvested in DMEM with 10% DMSO and stored at -80° C. Before use, cells were thawed, centrifuged at 1,000 rpm for 10 minutes and the pellet was resuspended in PBS. The cells were centrifuged again at 270×g for 10 minutes at 4° C. and the pellet was resuspended in a lysis buffer (10 mM Tris-HCl pH 7.4, 5 mM Na2 EDTA and protease inhibitors) and incubated for 30 minutes on ice. Cells were homogenized with an Ultra Turrax homogenizer. Unbroken cells and nuclei were removed by an initial centrifugation at 270×g for 10 minutes at 4° C. and crude membranes were collected from the supernatant by a 60 minute spin at 130,000×g. The pelleted membranes were resuspended in the same lysis buffer with 20 strokes by a Potter homogenizer. The final cell membrane suspension, corresponding to about 1×10^7 original cells/ml, was aliquoted and immediately frozen at -80° C.
D4 receptor binding studies were carried out in membranes from CHO cells prepared as above. The membranes were dilute in incubation buffer (50 ml/ TRIS-HCl pH 7.4, 5 mM MgCl2·6H2 O, 5 mM KCl, 1.5 mM CaCl2·2H2 O, 5 mM EDTA) according to their receptor density.
Displacement experiment were performed in 1000 μl total volume incubating the membranes (980 μl) in the presence of [^3 H]-YM 09151-2 (10 μl; 0.15-0.25 nM) and different concentrations of the test compounds dissolved in DMISO (10 μl) at 27° C. for two hours. Nonspecific binding was determined in the presence of 10 μM of Clozapine (10 μl). The reaction was stopped by rapid filtration through Inotech IH 201 filters (pre-soaked in 0.1% polyethyleneimine) using an Inotech Cell Harvester. The radioactivity was counted by liquid scintillation spectrometry.
as §1

The target in the next assay is T3, 5-HT1A receptor (Rattus norvegicus, UniProt P19327).
T3 construct: from tissue; host or cells: rat hippocampus (male Sprague-Dawley)
T3 sequence (P19327 1-422): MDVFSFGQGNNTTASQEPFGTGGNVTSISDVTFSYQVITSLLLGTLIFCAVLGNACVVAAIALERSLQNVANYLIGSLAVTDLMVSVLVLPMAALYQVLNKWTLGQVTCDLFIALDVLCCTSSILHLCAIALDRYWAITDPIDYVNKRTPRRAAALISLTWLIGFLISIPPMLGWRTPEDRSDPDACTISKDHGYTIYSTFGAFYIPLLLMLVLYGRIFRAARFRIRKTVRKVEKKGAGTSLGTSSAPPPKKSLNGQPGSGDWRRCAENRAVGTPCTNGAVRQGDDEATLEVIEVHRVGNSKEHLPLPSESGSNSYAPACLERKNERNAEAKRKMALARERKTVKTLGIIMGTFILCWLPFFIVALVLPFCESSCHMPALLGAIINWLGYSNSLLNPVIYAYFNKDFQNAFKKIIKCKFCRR
The assay is described as follows: 5-HT1A receptor binding, [3H]-8-OH-DPAT displacement. The conditions noted are these: rat hippocampus tissue, read-out: K1 (nM) for 5-HT1A (rat hippocampus tissue). As to the method: Male Sprague-Dawley rats (200-250 g) were used. The hippocampus taken from these animals was homogenized in 10 volumes of ice cold 50 mM TIUS buffer (pH 7.4). The homogenate was diluted 1:400 (w:v) in the same buffer to have a final protein concentration of about 200 μg/ml, filtered and incubated at 37° C. for 10 minutes before use.
Displacement experiments were performed by incubating the homogenate (980 μl) in the presence of [^3 H]-8-OH-DPAT (10 μl; 1.0-1.2 nM) and different concentrations of the test compounds dissolved in DMSO (10 μl), at 30° C. for 15 minutes (final volume: 1 ml). Nonspecific binding was determined in the presence of 10 μM 5-HT (10 μl). The reaction was stopped by rapid filtration through Inotech IH 201 filters using an Inotech Cell Harvester. The radioactivity was counted by liquid scintillation spectrometry.
as §1

This note sets out measurements from US6281218A, “Benzimidazolone derivatives having mixed serotonin and dopamine receptors affinity” (Ingelheim Italia S.p.A., priority 1999, dated 2001).

T1 sequence (P14842 whole entry): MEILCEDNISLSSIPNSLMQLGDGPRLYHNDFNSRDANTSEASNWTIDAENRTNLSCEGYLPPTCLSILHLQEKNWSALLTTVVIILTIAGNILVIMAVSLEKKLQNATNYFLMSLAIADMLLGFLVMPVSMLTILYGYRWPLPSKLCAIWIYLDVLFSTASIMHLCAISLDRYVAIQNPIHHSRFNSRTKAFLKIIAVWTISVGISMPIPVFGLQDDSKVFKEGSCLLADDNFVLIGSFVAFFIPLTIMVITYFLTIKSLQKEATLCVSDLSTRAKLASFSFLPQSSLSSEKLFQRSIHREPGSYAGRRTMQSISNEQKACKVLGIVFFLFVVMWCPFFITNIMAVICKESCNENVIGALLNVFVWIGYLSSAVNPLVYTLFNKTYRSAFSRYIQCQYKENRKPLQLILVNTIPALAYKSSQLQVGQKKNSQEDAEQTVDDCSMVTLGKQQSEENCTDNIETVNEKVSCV

`O=c1[nH]c2cc(O)ccc2n1CCN1CCN(c2cccc(C(F)(F)F)c2)CC1` [Compound 1, 5-Hydroxy-1-{2-[4-(3-trifluoromethylphenyl)piperazin-1-yl]ethyl}-1,3-dihydro-benzimidazol-2-one]: the Ki on 5-HT2A receptor came out at 58.5 nM; on D4 receptor, 287 nM; at 5-HT1A receptor, 40.8 nM.

With `O=c1[nH]c2ccc(O)cc2n1CCN1CCN(c2cccc(C(F)(F)F)c2)CC1` [Compound 2, 6-Hydroxy-1-{2-[4-(3-trifluoromethylphenyl)piperazin-1-yl]ethyl}-1,3-dihydro-benzimidazol-2-one], the values for the Ki at 5-HT2A receptor, at D4 receptor and at 5-HT1A receptor were 33.8 nM, 804 nM and 333 nM, respectively.

For the compound `O=c1[nH]c2c(O)cccc2n1CCN1CCN(c2cccc(C(F)(F)F)c2)CC1` [Compound 3, 4-Hydroxy-1-{2-[4-(3-trifluoromethylphenyl)piperazin-1-yl]ethyl}-1,3-dihydro-benzimidazol-2-one], the Ki at 5-HT2A receptor stood at 43.8 nM; on D4 receptor, 33.9 nM; at 5-HT1A receptor, 15.4 nM.

In the case of `O=c1[nH]c2cccc(O)c2n1CCN1CCN(c2cccc(C(F)(F)F)c2)CC1` [Compound 4, 7-Hydroxy-1-{2-[4-(3-trifluoromethylphenyl)piperazin-1-yl]ethyl}-1,3-dihydro-benzimidazol-2-one], the Ki on 5-HT2A receptor turned out to be 23.8 nM; on D4 receptor, 652 nM; on 5-HT1A receptor, 1590 nM.

As to `O=c1[nH]c2ccccc2n1CCN1CCN(c2ccc(O)c(C(F)(F)F)c2)CC1` [Compound 5, 1-{2-[4-(4-Hydroxy-3-trifluoromethylphenyl)piperazin-1-yl]ethyl}-1,3-dihydro-benzimidazol-2-one], the Ki at 5-HT2A receptor is 705 nM; on D4 receptor, 17.8 nM; on 5-HT1A receptor, 369 nM.

On to `O=c1[nH]c2ccccc2n1CCN1CCN(c2cc(O)cc(C(F)(F)F)c2)CC1` [Compound 6, 1-{2-[4-(3-Hydroxy-5-trifluoromethylphenyl)piperazin-1-yl]ethyl}-1,3-dihydro-benzimidazol-2-one], for which the Ki amounted to 328 nM at 5-HT2A receptor, 24.8 nM at D4 receptor and 156 nM at 5-HT1A receptor.

`O=c1[nH]c2ccccc2n1CCN1CCN(c2cc(C(F)(F)F)ccc2O)CC1` [Compound 7, 1-{2-[4-(2-Hydroxy-5-trifluoromethylphenyl)piperazin-1-yl]ethyl}-1,3-dihydro-benzimidazol-2-one]: the Ki on 5-HT2A receptor is 4440 nM; on 5-HT1A receptor it was more than 10000 nM.
